These are literature values, as cited in patent publication US20180373846A1, “METHODS AND SYSTEMS FOR ORGANIC SOLUTE SAMPLING OF AQUEOUS AND HETEROGENEOUS ENVIRONMENTS” (University of Maryland, Baltimore, priority 2014, published 2018).

For data set [1] the following is noted: Table 2, reference 31.
For data set [2] the following is noted: experimental hydration free energy.
The target in another data set is T4-L99A (Enterobacteria phage T4, UniProt P00720, L99A).
Another data set deals with β2AR (Homo sapiens, UniProt P07550). To be noted: experimental, from cited references.

Consider `CC=O` [Acetaldehyde, acetaldehyde], for which, in data set [1], the “HFE^fep” value is -4.43 kcal/mol. In addition, the “HFE^exp” value in data set [2] is -3.5 kcal/mol.

Take `CC(=O)O` [Acetate]: the “HFE^fep” value in data set [1] is -96.5 kcal/mol. For the same compound, the “HFE^exp” value in data set [2] was -79.1 kcal/mol.

On to `c1ccccc1` [Benzene, benzene], for which, in data set [1], the “HFE^fep” value was -0.71 kcal/mol. Further, in data set [2], the “HFE^exp” value was -0.83 kcal/mol. In addition, the experimental binding affinity at T4-L99A was -5.19 ± 0.16 kcal/mol.

Take `NC=O` [Formamide, formamide]: the “HFE^fep” value in data set [1] was -10.71 kcal/mol. Also, the “HFE^exp” value in data set [2] is -14 kcal/mol.

As to `c1c[nH]cn1` [Imidazole, imidazole], in data set [1], the “HFE^fep” value is -12.55 kcal/mol.

For `CO` [Methanol, methanol], in data set [1], the “HFE^fep” value was -6.16 kcal/mol. Further, in data set [2], the “HFE^exp” value was -5.1 kcal/mol.

Turning to `CN` [Methylammonium, methylammonium], in data set [1], the “HFE^fep” value is -52.0 kcal/mol. The “HFE^exp” value in data set [2] is -71.3 kcal/mol.

For `Nc1c(Cl)cc([C@@H](O)CNCCCCCCOCCc2ccccn2)cc1Cl` [Picumeterol], the ΔGbind on β2AR was −12.23.

`CC(C)NCC(O)COc1cccc2[nH]ccc12` (centres unmarked) [Pindolol]: the ΔGbind on β2AR is listed as −12.43.

As to `CCC` [Propane, propane], the “HFE^fep” value in data set [1] is 1.60 kcal/mol. Moreover, the “HFE^exp” value in data set [2] is on record as 1.96 kcal/mol.

For the compound `O` [Water, water], the “HFE^exp” value in data set [2] was -5.6 kcal/mol.

In the case of Hydroxybenzyl isoproterenol, the ΔGbind on β2AR was −9.72.
